Measurements: US9770460B2, “Non-digestible oligosaccharides for oral induction of tolerance against dietary proteins” (N.V. NUTRICIA, priority 2010, dated 2017)
Where no end group is shown, it is not given here.

Tested on: whey sensitized animals
Test: Mouse model of whey protein allergy: ear swelling after oral pretreatment with peptide mixtures (Example 4)
Format: in vivo, mice
Details: Example 4, pretreatment prior to whey sensitization
Text: Three- to four-week-old pathogen free female C3H/HeOuJ mice (Charles River Laboratories, Maastricht, The Netherlands) were used for this experiment. The mice were maintained on cow's milk protein free standard mouse chow (AIN-93G soy, Special Diets Services, Wijk bij Duurstede, the Netherlands).
The AIN-93G control diet was mixed with non-digestible oligosaccharides (2% w/w). The same non-digestible oligosaccharides were used as in example 1.
18-amino-acid-long synthetic peptides of beta-lactoglobulin were obtained from JPT Peptide Technologies (Berlin, Germany) (Table 4). Whey protein was purchased from DMV International (Veghel, The Netherlands). […]. Phosphate-buffered saline (PBS) was obtained from Cambrex Bio Science (Verviers, Belgium).
Shortly prior to the experiment, the peptides were suspended in PBS. The peptides were combined in three mixtures, namely peptides 1-4 in mixture 1, peptides 5-7 in mixture 2 and peptides 8 and 9 in mixture 3. The final concentration of each peptide in the mixture was 8 mg/ml. […] Before and 1 h after the challenge, the ear thickness was measured using a digital micrometer (Mitutoyo, Veenendaal, the Netherlands). The difference in the ear thickness (ear swelling) is an indication for the acute allergic response and is expressed as delta μm.

AASDISLLDAQSAPLRVY [Peptide 3, beta-lactoglobulin AA 25-42]
allergic response / synergy with NDO, in words: did not show these synergistic effects with NDO
